# Tests used:
# F. virguliforme = test: Agar diffusion assay, zones of inhibition on F. virguliforme lawn plates (Example 1); type: cell-based, Fusarium virguliforme
# Description: A PDA plate containing two week old F. virguliforme was flooded with sterile distilled water and scraped with an L-rod to release spores. The spore solution was poured through about four layers of cheese cloth into a 50 mL conical tube. Spores were quantified using a hemacytometer, then diluted to 1×10^5 spores/mL. (1×10^4 spores were spread on plates.) To make F. virguliforme lawn plates, 100 μL of the spore suspension was spread onto commercial PDA plates. Wells were made for the F. virguliforme lawn plates using straw-plungers.
# Natamycin stock was diluted in sterile distilled water to concentrations of 500 ppm, 250 ppm, 100 ppm, 50 ppm, 25 ppm, 12.5 ppm, 6.25 ppm, 3.13 ppm, 1.56 ppm, 0.78 ppm, and 0.4 ppm. 100 μL of each dilution was placed in a well on the lawn plates. Control plates consisted of a 1000 ppm plate, a water control, and a 70% ethanol (EtOH) control.
# […] […] Dilutions lower than 12.5 ppm had no effect.
# [1] = test system: SDS Fusarium virguliforme; test: Drench treatment on soy seedlings for control of SDS in planta, low concentrations (Example 4); type: in vivo; settings: for Root Vigor Average Expt. 1 / Root Vigor Average Expt. 2: rating 0 (thin and stunted taproot) to 4 (healthy taproot); for Root Vigor Average Expt. 1: IC 1.6, UIC 3.6; for Root Vigor Average Expt. 2: IC 2.2, UIC 3.9; for Root Rot Average Expt. 2 / Root Rot Average Expt. 1: rating 1 (0% infection) to 5 (>90% infection); for Root Rot Average Expt. 2: IC 3.8, UIC 1; for Root Rot Average Expt. 1: IC 4, UIC 1
# Excerpt: The plants were allowed to grow for 18-21 days. The plants were then gently removed and assessed for root rot symptoms, with a rating of 1=0% infection on taproot and lateral roots, a 2=<25% infection, a 3=25-50% infection, a 4=51-90% infection, and a 5=>90% infection. Root vigor was rated such that a rating of 4=healthy taproot and many lateral roots, a 3=fewer lateral roots and some stunting, a 2=fewer or stringy lateral roots and more stunting, 1=thin tap root and only a few lateral roots, and a 0=thin and stunted taproot with 0-3 lateral roots. […] In these experiments, the inoculum rate was measured by spores/cone at approximately 1×10^7 SDS Fusarium virguliforme spores per cone. Soy plants were germinated first and then transplanted into infested soil. The soybean seeds were germinated in clean sand/soil for 12 days and then seedlings were transplanted into infested soil for 18 days. Natamycin drench was applied 24 hours after transplanting. Natamycin treatment was assessed at 2.5 weeks.
# SDS spores = test: Comparison of inoculum rates on treated seeds for control of SDS in planta (Example 6); type: in vivo, Fusarium virguliforme; settings: for Root Vigor Average: rating 0-4 (4 = healthy taproot); for Root Rot Average: rating 1-5 (5 = >90% infection)
# Excerpt: The plants were allowed to grow for 18-21 days. The plants were then gently removed and assessed for root rot symptoms, with a rating of 1=0% infection on taproot and lateral roots, a 2=<25% infection, a 3=25-50% infection, a 4=51-90% infection, and a 5=>90% infection. Root vigor was rated such that a rating of 4=healthy taproot and many lateral roots, a 3=fewer lateral roots and some stunting, a 2=fewer or stringy lateral roots and more stunting, 1=thin tap root and only a few lateral roots, and a 0=thin and stunted taproot with 0-3 lateral roots.
# Using a protocol similar to that described in Example 5, natamycin at concentrations of 50 μg, 25 μg, 10 μg, 5 μg, and 1 μg was assessed for the treatment of SDS.
# […] Inoculum rates of 25 g/L inoculum and 8 g/L inoculum were compared, corresponding to approximately 10^5 SDS spores per container and 10^4-10^5 SDS spores per container, respectively. Assessment occurred after 18 and 22 days.
smiles,measurement,setting,value
"C[C@@H]1C/C=C/C=C/C=C/C=C/[C@H](O[C@@H]2O[C@H](C)[C@@H](O)[C@H](N)[C@@H]2O)C[C@@H]2O[C@](O)(C[C@@H](O)C[C@H]3O[C@@H]3/C=C/C(=O)O1)C[C@H](O)[C@H]2C(=O)O [Natamycin, natamycin]","control of F. virguliforme (zones of inhibition), drop off","F. virguliforme; 12.5 ppm, 100 μL per well, after three days",noticeably
same,control of F. virguliforme (zones of inhibition),"F. virguliforme; 12.5 ppm, after seven days",very limited activity
same,Fusarium growth around plates,"F. virguliforme; 25 ppm and 12.5 ppm plates, one day later (after the three-day reading)",more Fusarium grew
same,control of F. virguliforme (zones of inhibition),"F. virguliforme; 50 ppm, 100 μL per well, after three days",started to drop off slightly
same,control of F. virguliforme (zones of inhibition),"F. virguliforme; 50 ppm, after seven days",started falling off
same,control of F. virguliforme (zones of inhibition),"F. virguliforme; 100 ppm, 100 μL per well, after three days",Substantial control
same,control of F. virguliforme (zones of inhibition),"F. virguliforme; 250 ppm, 100 μL per well, after three days",Substantial control
same,control of F. virguliforme (zones of inhibition),"F. virguliforme; 500 ppm, 100 μL per well, after three days",Substantial control
same,control of F. virguliforme (zones of inhibition),"F. virguliforme; 1000 ppm plate, after three days",almost completely controlled
same,effect on F. virguliforme (zones of inhibition),F. virguliforme; dilutions lower than 12.5 ppm,no effect
same,Root Vigor Average Expt. 1,[1]; drench 1 ppm,1.7
same,Root Vigor Average Expt. 2,[1]; drench 1 ppm,2.5
same,Root Rot Average Expt. 2,[1]; drench 1 ppm,3.2
same,Root Rot Average Expt. 1,[1]; drench 1 ppm,4.5
same,Root Vigor Average Expt. 1,[1]; drench 5 ppm,2
same,Root Vigor Average Expt. 2,[1]; drench 5 ppm,2.7
same,Root Rot Average Expt. 2,[1]; drench 5 ppm,3.4
same,Root Rot Average Expt. 1,[1]; drench 5 ppm,3.9
same,Root Vigor Average Expt. 1,[1]; drench 10 ppm,2.1
same,Root Vigor Average Expt. 2,[1]; drench 10 ppm,3
same,Root Rot Average Expt. 2,[1]; drench 10 ppm,3.1
same,Root Rot Average Expt. 1,[1]; drench 10 ppm,3.5
same,Root Vigor Average Expt. 1,[1]; drench 25 ppm,2.8
same,Root Vigor Average Expt. 2,[1]; drench 25 ppm,3.1
same,Root Rot Average Expt. 2,[1]; drench 25 ppm,2.6
same,Root Rot Average Expt. 1,[1]; drench 25 ppm,2.9
same,Root Vigor Average Expt. 1,[1]; drench 50 ppm,2.3
same,Root Vigor Average Expt. 2,[1]; drench 50 ppm,2.9
same,Root Rot Average Expt. 2,[1]; drench 50 ppm,2.6
same,Root Rot Average Expt. 1,[1]; drench 50 ppm,3.1
same,decrease of root rot symptoms,"SDS spores; both seed treatment experiments, both SDS inoculum rates",no consistent decrease
same,Root Vigor Average,"SDS spores; drench 25 ppm, Inoc Rate 8, IC 2.3",1.9
same,Root Rot Average,"SDS spores; drench 25 ppm, Inoc Rate 8, IC 2.9",2.6
same,Root Vigor Average,"SDS spores; drench 25 ppm, Inoc Rate 25, IC 1.6",2.3
same,Root Rot Average,"SDS spores; drench 25 ppm, Inoc Rate 25, IC 3.9",4.1
same,Root Vigor Average,"SDS spores; seed treatment 1 μg/seed, Inoc Rate 8, IC 2.3",1.9
same,Root Rot Average,"SDS spores; seed treatment 1 μg/seed, Inoc Rate 8, IC 2.9",2.9
same,Root Vigor Average,"SDS spores; seed treatment 1 μg/seed, Inoc Rate 25, IC 1.6",2.1
same,Root Rot Average,"SDS spores; seed treatment 1 μg/seed, Inoc Rate 25, IC 3.9",4.1
same,Root Vigor Average,"SDS spores; seed treatment 5 μg/seed, Inoc Rate 8, IC 2.3",1.4
same,Root Rot Average,"SDS spores; seed treatment 5 μg/seed, Inoc Rate 8, IC 2.9",2.4
same,Root Vigor Average,"SDS spores; seed treatment 5 μg/seed, Inoc Rate 25, IC 1.6",2.6
same,Root Rot Average,"SDS spores; seed treatment 5 μg/seed, Inoc Rate 25, IC 3.9",4.1
same,Root Vigor Average,"SDS spores; seed treatment 10 μg/seed, Inoc Rate 8, IC 2.3",2.2
same,Root Rot Average,"SDS spores; seed treatment 10 μg/seed, Inoc Rate 8, IC 2.9",2.4
same,Root Vigor Average,"SDS spores; seed treatment 10 μg/seed, Inoc Rate 25, IC 1.6",1.9
same,Root Rot Average,"SDS spores; seed treatment 10 μg/seed, Inoc Rate 25, IC 3.9",4.1
same,Root Vigor Average,"SDS spores; seed treatment 25 μg/seed, Inoc Rate 8, IC 2.3",1.8
same,Root Rot Average,"SDS spores; seed treatment 25 μg/seed, Inoc Rate 8, IC 2.9",2.3
same,Root Vigor Average,"SDS spores; seed treatment 25 μg/seed, Inoc Rate 25, IC 1.6",2.2
same,Root Rot Average,"SDS spores; seed treatment 25 μg/seed, Inoc Rate 25, IC 3.9",3.6
same,Root Vigor Average,"SDS spores; seed treatment 50 μg/seed, Inoc Rate 8, IC 2.3",1.9
same,Root Rot Average,"SDS spores; seed treatment 50 μg/seed, Inoc Rate 8, IC 2.9",2.8
same,Root Vigor Average,"SDS spores; seed treatment 50 μg/seed, Inoc Rate 25, IC 1.6",2.1
same,Root Rot Average,"SDS spores; seed treatment 50 μg/seed, Inoc Rate 25, IC 3.9",3.8
